Source: patent US20080206364A1, “Topical nitric oxide as a treatment of autoimmune diseases” (Nitric Biotherapeutics, Inc., priority 2006, published 2008)
Entries after “also recorded” stand apart in the source; their conditions may differ.

Tests used:
human fibroblasts = assay: Cell attachment capacity of human fibroblasts; type: cell-based; settings: 160 ppm gNO, within 1 hour of culturing; control group the same
Experimental: FIG. 9 illustrates cell attachment capacity of human fibroblasts following exposure to 160 ppm of gNO.
Capability of cells to reattach to the culture plates within a specified time limit is commonly used as an indication of viability of cells in culture. Both the control and treated groups show a 70% attachment capacity within 1 hour of culturing.

[1] = tested on: leg ulcer induced by an autoimmune disorder; assay: Autoimmune wound patient: leg ulcer in antiphospholipid antibody syndrome, topical nitric oxide gas; type: in vivo, human
Excerpt: A patient was diagnosed with antiphospholipid antibody syndrome. Antiphospholipid antibody syndrome is an autoimmune disorder that mainly affects people under the age of 40. The disease causes the blood in the body to clot and is associated with a type of antibody that attacks blood platelets. Strokes, deep vein thrombosis (DVT), heart attacks, and pulmonary emboli are some of the manifestations of the disease. As a result of this syndrome, the patient had two DVT's and one pulmonary embolism.
Following repetitive injury to the deep venous system, the patient developed three areas of ulceration and secondary skin breakdown on the left shin area of the leg. The wound was colonized with a variety of organisms and at times had been clinically infected. The patient had been treated with numerous types of oral and IV antibiotics over several years. Many different types of dressings had been used to control the bacteria, including silver dressings, all without success.
The three small ulcers continued to grow in size and then joined together to create one large ulcer (FIG. 15A). Skin grafts on two occasions deteriorated and sloughed due to repetitive infections and high bacterial burden, even with the use of hyperbaric oxygen treatment.
With the inability to control the bacterial burden, amputation was planned. As a rescue trial, topical nitric oxide gas was applied for eight hours per night.
The nitric oxide therapy was then changed to be used for 12 hours per night, using 200 ppm gNO.

collagen mRNA = assay: mRNA expression for collagen following exposure to NO; type: cell-based
Excerpt: Rather than applying exogenous collagenase for enzymatic debridement of necrotic tissue, exposing a wound with necrotic tissue to exogenous NO gas to upregulate endogenous collagenase may be more beneficial. When endogenous collagenase is released by the cell, it automatically releases TIMP's (tissue inhibitor of metalloproteinase). This ensures that the matrix degradation is coordinated and allows the establishment of sharp geographical boundaries of collagenolytic activity and the protection of areas of connective tissue from the activity of the enzyme. In contrast, use of exogenous collagenase material to debride a wound confers no protection to specific areas of the wound as it is active on every cell that comes in contact with it whether or not the effect is desired.
Preferably, after the exposure of the wound to high concentration of nitric oxide gas for a first treatment period (e.g., 5-8 hours per day), the necrotic tissue may be mechanically removed easily and the concentration of nitric oxide gas can be decreased for a second treatment period. The low concentration of nitric oxide gas (e.g., at 5-20 ppm) delivered for the second treatment period may upregulate the expression of collagen mRNA leading to synthesis of new collagen to aid in the closure of the wound. […] The second treatment period may be for a period 7-16 hours per day. […]

[2] = tested on: fibroblasts grown in a 3D matrix; assay: Migration and proliferation of fibroblasts grown in a 3D matrix; type: cell-based; settings: 200 ppm NO, 8 hours per day for 3 days, vs air or conventional incubator
human endothelial cells = assay: Tube formation in human endothelial cells grown in matrigel; type: cell-based; settings: 200 ppm NO, 8 hours or 24 hours
Experimental: Left panels at 8 hours of exposure. Right panels at 24 hours of exposure.

human fibroblast cells = assay: Fibroblast viability study in gNO incubation chamber (morphology, cell count, proliferation); type: cell-based
Experimental: Fibroblast cells obtained from adult patients undergoing elective reconstructive surgery were cultured in Dulbeco's Modified Eagle's Medium (DMEM), supplemented with 10% fetal bovine serum (FBS) and antibiotic-antimycotic preparation and divided into ten 25 cm^2 vented culture flasks (COSTAR). Four of these flasks (treated group) were exposed to 20 or 200 ppm humidified gNO inside a specialized NO incubation chamber at 37° C. for 24 and 48 hours. The NO exposure chamber was validated prior to the study to eliminate extraneous variables and ensure optimal conditions for fibroblast cell growth. Another four flasks (control group) were placed inside conventional culture incubator and exposed only to ambient humidified air at 37° C. Two flasks were separately harvested and counted as the number of cells at zero time. Following the treatment, fibroblast cells were harvested and evaluated for morphology, cell count, capacity to proliferate and medium pH.
Cells under gNO appeared healthy and attached to the culture plates.

[3] = tested on: full thickness infected wound; assay: Histology of full thickness infected wound punch biopsies, gNO-treated vs control animals; type: in vivo; settings: for toxic effects (cellular debris) in wound tissue: in vivo exposure, 200 ppm gNO, open wound animal model
Experimental: FIG. 5 illustrates histology analysis of full thickness infected wound exposed to 200 ppm gNO for 24 hours.
FIG. 5 presents histological analysis of tissue blocks prepared on wound punch biopsies from animals in NO-treated and control groups. Samples from the control group show more advanced neutrophil infiltration and so a higher degree of inflammatory reaction. […] Overall, a healthier healing process is observed in the wounds treated with gNO.

collagenase mRNA = assay: mRNA expression for collagenase following exposure to gNO; type: cell-based; settings: 200 ppm gNO, 24 and 48 hours, with increasing exposure time
Excerpt: Witte M B, et al, (2002) Nitric oxide enhances […] wound healing in diabetes, Br J Surg., 89:1594-601. Thus, Applicants believe that NO may upregulate expression of both collagenase (MMP-1) and gelatinase (MMP-2), which may be important in keeping the wound clean from necrotic tissue while not prolonging the inflammatory phase.

psoriatic lesions = assay: Psoriasis study, one volunteer, NO delivered to right foot in plastic boot; type: in vivo, human; settings: 300 ppm
Experimental: Experiments were conducted using one volunteer who suffers from psoriasis. The subject had psoriasis on their arms, legs and feet, all of which is itchy and painful. At the time of the study, the volunteer was using a medicated cream called DOVOBET on the arms and legs. The subject stopped using the medicated cream on the legs and feet prior to the NO treatments described herein.
Treatments were administered to the subject's right foot, as it appeared to have been affected the most by psoriasis. […] Around the ankle were small red blotches that spread all of the way up the leg. The small blotches were slightly raised and appeared to be inflamed.
The subject's foot was placed into a large plastic boot, which was lightly secured with VELCRO straps halfway up the calf. A tube coming out of the top of the plastic boot was unaltered, and the second tube was sealed off using a plastic clamp. A NO line capable of delivering NO at 300 ppm, 250 cc per minute, was screwed into the bottom tubing closest to the ankle using a plastic screw. A pin was used to pick several holes in the bottom of the plastic boot to allow the NO to flow through the boot. NO was then administered to the boot, and therefore, the psoriatic lesions, at 300 ppm for 180 minutes per day over six consecutive days.

[4] = 200 ppm gNO, 12 hours per night, another eight weeks
[5] = gNO less than 200 ppm continuously for 48 hours
[6] = after second treatment (day two)
[7] = after third treatment (day three)

## [N]=O [NO, nitric oxide]
Human fibroblasts
  attachment capacity: 70%
[1]; [4]
  clinical outcome (planned amputation): amputation was avoided
  wound covered by beefy red granulation tissue: ~75%
[1]; topical, eight hours per night, within six weeks
  wound appearance: less yellow slough in the wound bed, the wound edges appeared less raised, and more granulation buds were present
Collagen mRNA; fibroblasts exposed to 5 ppm of NO
  collagen mRNA expression: increased collagen mRNA expression
Collagen mRNA; high concentration (200 ppm) of exogenous nitric oxide, FIG. 6 left panel
  collagen expression: possible inhibition of collagen expression
[2]
  migration of fibroblasts: does not appear to affect
  proliferation of fibroblasts in 3D matrix: does not appear to interfere with the proliferation
Human endothelial cells
  tube formation vs air: no significant difference
Human fibroblast cells; 200 ppm NO, vs control
  fibroblast cell proliferation: increasing proliferation; also recorded: increase in fibroblast cell proliferation
Human fibroblast cells; around 200 ppm gNO, 24 and 48 hours, 37° C.
  harmful effects on the fibroblast (morphology, cell count, capacity to proliferate, medium pH): did not have harmful effects
Human fibroblast cells; [5]
  morphological appearance and attachment capacity of treated vs control dermal fibroblasts: quite comparable
  toxic effect due to exposure: No toxic effect
[3]; 200 ppm gNO for 24 hours, vs control group
  neutrophil concentration (inflammatory reaction) in wounds: lower level of neutrophil concentration
[3]; 200 ppm gNO for 24 hours, vs control wounds
  wound closure / healing process (histology): layer of granular tissue closing on the wound
[3]; listed as gNO
  toxic effects (cellular debris) in wound tissue: No toxic effects
[3]; listed as nitric oxide gas
  toxic effects (cellular debris) in wound tissue: no toxicity
Collagenase mRNA
  expression of collagenase mRNA: increased
Psoriatic lesions; 180 min, after first treatment (day one)
  appearance of the psoriasis: no change
Psoriatic lesions; 180 min, after the first day
  white scales on the ankle: disappeared
Psoriatic lesions; 180 min per day, after day two
  discolored (dark) patch of skin on inner calf: almost gone
Psoriatic lesions; after fourth, fifth and sixth treatments (days 4, 5 and 6)
  physical results (psoriatic condition): remain the same
Psoriatic lesions; [6]
  inflammation around the ankle: diminished slightly
  small red blotches around the ankle and up the leg: the same as prior to the treatment
Psoriatic lesions; [7]
  inflammation around the ankle: decreased considerably
  psoriatic lesion around the ankle (area): smaller in area
  small red blotches around the ankle and up the leg: appeared the same
